Patent US4622337A, “2,2-dimethyl-3-(2-halovinyl)cyclopropane carboxlic acid ester pesticides” (priority 1972, dated 1986)

Assays:
[1] = system: female flies (houseflies); test: Synergisability with sesamex, 2 μg per fly pretreatment; format: in vivo, Musca domestica; details: for Approx. Synergistic factor: sesamex, 2 μg. per fly; for LD 50 active compound + synergist: pretreated with 2 μg. per fly sesamex; for LD 50 active compound only: untreated flies
Description: (§1) Female flies were treated on the thorax with a one microliter drop of insecticide dissolved in acetone. Two replicates of 15 flies were used at each dose rate and 6 dose rates were used per compound under test. After treatment, the flies were maintained at a temperature of 20° C.±1° and kill was assessed 24 and 48 hours after treatment. LD50 values were calculated in micrograms of insecticide per fly and relative toxicities were calculated from the inverse ratios of the LD50 values.

[2] = system: houseflies (Musca domestica); test: Relative toxicity to houseflies, topical drop on thorax; format: in vivo; details: 5-benzyl-3-furylmethyl (1R)-trans-chrysanthemate = 1000; inverse ratio of LD50; topical, female flies
Description: (§2) The toxicity of these new esters was tested by the procedure described in detail in our above mentioned application and the following results were obtained:
(§3) The insecticidal acitivity of the esters of the invention was assessed against houseflies and mustard beetles using the following techniques:
as §1, with “values. (see Sawicki et al, Bulletin of the World Health Organization, 35,893, (1966) and Sawicki et al, Entomologia and Exp. Appl. 10, 253, (1967)).” for “values.”
(§4) Relative toxicities were calculated by comparison with 5-benzyl-3-furylmethyl(1R)-trans-chrysanthemate which is one of the most toxic chrysanthemate esters known to houseflies and mustard beetles, its toxicity being about 24 times that of allethrin to houseflies and 65 times that of allethrin to mustard beetles.

[3] = system: mustard beetles (Phaedon cochleariae Fab); test: Relative toxicity to mustard beetles, topical micro drop; format: in vivo; details: 5-benzyl-3-furylmethyl (1R)-trans-chrysanthemate = 1000; inverse ratio of LD50; topical, 48 hours
Description: as §2, §3
Acetone solutions of the test compound were applied ventrally to adult mustard beetles using a micro drop applicator. The treated insects were maintained for 48 hours after which time kill is assessed. Two replicates of 40 to 50 mustard beetles were used at each dose level and 3 to 4 dose levels were used for each compound. Again, LD50 values were calculated and relative toxicities were calculated for the inverse ratios of LD50 (see Elliott et al, J. Sci. Food Agric. 20, 561, (1969)).
as §4

CC(C)=CC1C(C(=O)OCc2coc(Cc3ccccc3)c2)C1(C)C (racemic) [5-benzyl-3-furyl methyl (1RS)--cis-trans-chrysanthemate, reference compound]
Approx. Synergistic factor [1]: ~13

CC1(C)[C@H](C=C(Cl)Cl)[C@H]1C(=O)OCc1cccc(Oc2ccccc2)c1 (racemic) [Compound P21F, 3-Phenoxybenzyl(1RS)-trans-2,2-dimethyl-3-(2,2-dichlorovinyl)cyclopropane carboxylate]
Relative Toxicity, Houseflies [2]: 400
Relative Toxicity, Mustard Beetles [3]: 790
LD 50 active compound + synergist [1]: 0.00033 μg. per female fly
Approx. Synergistic factor [1]: ~39
LD 50 active compound only [1]: 0.013 μg. per female fly

CC1(C)[C@H](C(=O)OCc2coc(Cc3ccccc3)c2)[C@@H]1C=C(Cl)Cl (relative stereo) [Compound P21D]
Relative Toxicity, Houseflies [2]: 1200
Relative Toxicity, Mustard Beetles [3]: 1700
LD 50 active compound + synergist [1]: 0.00046 μg. per female fly
Approx. Synergistic factor [1]: ~12
LD 50 active compound only [1]: 0.0058 μg. per female fly

CC/C=C\[C@H]1[C@@H](C(=O)OCc2coc(Cc3ccccc3)c2)C1(C)C [Compound A cis]
LD 50 active compound + synergist [1]: 0.0012 μg. per female fly
Approx. Synergistic factor [1]: ~6
LD 50 active compound only [1]: 0.0074 μg. per female fly

CC1(C)[C@H](C=C(Br)Br)[C@H]1C(=O)OCc1coc(Cc2ccccc2)c1 [Compound P21B]
Relative Toxicity, Houseflies [2]: 1100
Relative Toxicity, Mustard Beetles [3]: 1900

CC1(C)C(C=C(Cl)Cl)C1C(=O)OCc1cccc(Cc2ccccc2)c1 (stereo not shown) [Compound P21K]
Relative Toxicity, Houseflies [2]: 340
Relative Toxicity, Mustard Beetles [3]: 350

COC(=O)C(Cl)=C[C@@H]1[C@@H](C(=O)OCc2coc(Cc3ccccc3)c2)C1(C)C [Compound P24A, 5-benzyl-3-furylmethyl ester of 2,2-dimethyl-3-(2-chloro-2-carbomethoxyvinyl)cyclopropane carboxylic acid]
Relative Toxicity, Houseflies [2]: 82
Relative Toxicity, Mustard Beetles [3]: 310

CCOC(=O)C(Cl)=C[C@@H]1[C@@H](C(=O)OCc2coc(Cc3ccccc3)c2)C1(C)C [Compound P24B]
Relative Toxicity, Houseflies [2]: 150
Relative Toxicity, Mustard Beetles [3]: 310

CCCOC(=O)C(Cl)=C[C@@H]1[C@@H](C(=O)OCc2coc(Cc3ccccc3)c2)C1(C)C [Compound P24C]
Relative Toxicity, Houseflies [2]: 53
Relative Toxicity, Mustard Beetles [3]: 120

CCOC(=O)C(Br)=C[C@@H]1[C@@H](C(=O)OCc2coc(Cc3ccccc3)c2)C1(C)C [Compound P24D]
Relative Toxicity, Houseflies [2]: 450
Relative Toxicity, Mustard Beetles [3]: 290

CC1(C)[C@H](C(=O)OCc2cccc(Oc3ccccc3)c2)[C@@H]1C=C(Br)Br [Compound P29A, 3-phenoxybenzyl(1R)cis-2,2-dimethyl-3-(2,2-dibromovinyl)cyclopropane carboxylate]
Relative Toxicity, Houseflies [2]: 2200
Relative Toxicity, Mustard Beetles [3]: 1600

CC1(C)[C@H](C(=O)OC(C#N)c2cccc(Oc3ccccc3)c2)[C@@H]1C=C(Br)Br (stereo partly drawn) [Compound P29B, (αRS)-cyano-3-phenoxybenzyl(1R)cis-2,2-dimethyl-3-(2,2-dibromovinyl)cyclopropane carboxylate]
Relative Toxicity, Houseflies [2]: 10000
Relative Toxicity, Mustard Beetles [3]: 11000

CC1(C)[C@H](C=C(Br)Br)[C@H]1C(=O)OCc1cccc(Oc2ccccc2)c1 [Compound P29C, 3-phenoxybenzyl(1R)trans-2,2-dimethyl-3-(2,2-dibromovinyl)-cyclopropane carboxylate]
Relative Toxicity, Houseflies [2]: 1100
Relative Toxicity, Mustard Beetles [3]: 4000

CC1(C)[C@H](C=C(Br)Br)[C@H]1C(=O)OC(C#N)c1cccc(Oc2ccccc2)c1 (stereo partly drawn) [Compound P29D, (αRS)-cyano-3-phenoxybenzyl(1R)trans-2,2-dimethyl-3-(2,2-dibromovinyl)-cyclopropane carboxylate]
Relative Toxicity, Houseflies [2]: 4100
Relative Toxicity, Mustard Beetles [3]: 5200

CC1(C)[C@H](C=C(Cl)Cl)[C@H]1C(=O)OC(C#N)c1cccc(Oc2ccccc2)c1 (stereo partly drawn) [Compound P29E, (αRS)-cyano-3-phenoxybenzyl(1R)trans-2,2-dimethyl-3-(2,2-dichlorovinyl)-cyclopropane carboxylate]
Relative Toxicity, Houseflies [2]: 3900
Relative Toxicity, Mustard Beetles [3]: 3100

CC1(C)[C@H](C(=O)OC(C#N)c2cccc(Oc3ccccc3)c2)[C@@H]1C=C(Cl)Cl (stereo partly drawn) [Compound P29J, (αRS)-cyano-3-phenoxybenzyl(1R)-cis-2,2-dimethyl-3-(2,2-dichlorovinyl)-cyclopropane carboxylate]
Relative Toxicity, Houseflies [2]: 11000
Relative Toxicity, Mustard Beetles [3]: 4200

CC1(C)[C@H](C=C(Cl)Cl)[C@@H]1C(=O)OC(C#N)c1cccc(Oc2ccccc2)c1 (stereo partly drawn) [Compound P29K, (αRS)-cyano-3-phenxoybenzyl(1S)-cis-2,2-dimethyl-3-(2,2-dichlorovinyl)-cyclopropane carboxylate]
Relative Toxicity, Houseflies [2]: 140
Relative Toxicity, Mustard Beetles [3]: 130

CC1(C)[C@H](C=C(F)F)[C@H]1C(=O)OCc1coc(Cc2ccccc2)c1 [Compound P31A]
Relative Toxicity, Houseflies [2]: 3900
Relative Toxicity, Mustard Beetles [3]: 1900

CC1(C)[C@H](C=C(F)F)[C@H]1C(=O)OCc1cccc(Oc2ccccc2)c1 [Compound P31B]
Relative Toxicity, Houseflies [2]: 620
Relative Toxicity, Mustard Beetles [3]: 270

CC1(C)[C@H](C=C(F)F)[C@H]1C(=O)OC(C#N)c1cccc(Oc2ccccc2)c1 (stereo partly shown) [Compound P31C]
Relative Toxicity, Houseflies [2]: 840
Relative Toxicity, Mustard Beetles [3]: 730

CC1(C)[C@H](C(=O)OCc2coc(Cc3ccccc3)c2)[C@@H]1C=C(F)F [Compound P31D]
Relative Toxicity, Houseflies [2]: 2300
Relative Toxicity, Mustard Beetles [3]: 1300

CC1(C)[C@H](C(=O)OCc2cccc(Oc3ccccc3)c2)[C@@H]1C=C(F)F [Compound P31E]
Relative Toxicity, Houseflies [2]: 1800
Relative Toxicity, Mustard Beetles [3]: 850

CC1(C)[C@H](C(=O)OC(C#N)c2cccc(Oc3ccccc3)c2)[C@@H]1C=C(F)F (stereo partly shown) [Compound P31F]
Relative Toxicity, Houseflies [2]: 1200
Relative Toxicity, Mustard Beetles [3]: 2200

CC1(C)[C@H](C(=O)OCc2cccc(C(=O)c3ccccc3)c2)[C@@H]1C=C(Br)Br [Compound P39A, 3-benzoylbenzyl(1R)cis-2,2-dimethyl-3-(2,2-dibromovinyl)-cyclopropane carboxylate]
Relative Toxicity, Houseflies [2]: 50
Relative Toxicity, Mustard Beetles [3]: 830

CC1(C)[C@H](C=C(F)F)[C@H]1C(=O)OCc1cccc(C(=O)c2ccccc2)c1 [Compound P39C, 3-benzoylbenzyl(1R)trans-2,2-dimethyl-3-(2,2-difluorovinyl)-cyclopropane carboxylate]
Relative Toxicity, Houseflies [2]: 6
Relative Toxicity, Mustard Beetles [3]: 50

CC1(C)[C@H](C(=O)OCc2cccc(C(=O)c3ccccc3)c2)[C@@H]1C=C(F)F [Compound P39D, 3-benzoylbenzyl(1R)-cis-2,2-dimethyl-3-(2,2-difluorovinyl)-cyclopropane carboxylate]
Relative Toxicity, Houseflies [2]: 20
Relative Toxicity, Mustard Beetles [3]: 500

CC/C=C\[C@@H]1[C@@H](C(=O)OCc2cccc(Cc3ccccc3)c2)C1(C)C [Compound S]
Relative Toxicity, Houseflies [2]: 120
Relative Toxicity, Mustard Beetles [3]: 170

CC1(C)[C@H](C=CCl)[C@H]1C(=O)OCc1coc(Cc2ccccc2)c1 [K]
Relative Toxicity, Houseflies [2]: 1300
Relative Toxicity, Mustard Beetles [3]: 1600

C#CC(OC(=O)[C@@H]1[C@H](C=C(Br)Br)C1(C)C)c1cccc(Oc2ccccc2)c1 (stereo partly shown) [ME7]
Relative Toxicity, Houseflies [2]: 1100
Relative Toxicity, Mustard Beetles [3]: 5000

C=CCC1=C(C)C(OC(=O)[C@@H]2[C@@H](C=C(F)F)C2(C)C)CC1=O (stereo partly shown) [ME9]
Relative Toxicity, Houseflies [2]: 50
Relative Toxicity, Mustard Beetles [3]: 50

C=CCC1=C(C)C(OC(=O)[C@@H]2[C@H](C=C(F)F)C2(C)C)CC1=O (stereo partly shown) [ME10]
Relative Toxicity, Houseflies [2]: 40
Relative Toxicity, Mustard Beetles [3]: 30

CC1(C)C(C=C(Br)Br)C1C(=O)OC(C#N)c1cccc(Oc2ccccc2)c1 [P29B (non-crystalline isomer), (αR)-cyano-3-phenoxybenzyl(1R)cis-2,2-dimethyl-3-(2,2-dibromovinyl)cyclopropane carboxylate]
Relative Toxicity, Houseflies [2]: 3500
Relative Toxicity, Mustard Beetles [3]: 4000

C=C/C=C\CC1=C(C)[C@@H](OC(=O)[C@@H]2[C@@H](C=C(C)C)C2(C)C)CC1=O [Pyrethrin I, reference compound]
Relative Toxicity, Houseflies [2]: 12
Relative Toxicity, Mustard Beetles [3]: 1600

C=CCC1=C(C)C(OC(=O)[C@@H]2[C@@H](/C=C\CC)C2(C)C)CC1=O (stereo partly shown) [Q]
Relative Toxicity, Houseflies [2]: 60
Relative Toxicity, Mustard Beetles [3]: 69

CC/C=C\[C@@H]1[C@@H](C(=O)OCc2cccc(Oc3ccccc3)c2)C1(C)C [T]
Relative Toxicity, Houseflies [2]: 240
Relative Toxicity, Mustard Beetles [3]: 300
